We go through seven molecules from US20100035926A1, “PYRAZOLE DERIVATIVES AS NON-STEROIDAL GLUCOCORTICOID RECEPTOR LIGANDS” (priority 2006, published 2010).

A short description of series [1]: Assay for Brain Penetrance. Type of series: in vivo. The settings on record: brain and plasma, rat, single intravenous dose 1 mg/kg, read-out: brain to plasma ratio. As to the method:
Each rat received a single intravenous dose at a level of 1 mg/kg. The dose was formulated in 10% DMSO/50% PEG200/40% sterile water. Terminal blood samples were taken at 5 or 15 mins after dosing, by cardiac puncture following anaesthesia with isofluorane. The brains were removed at the same time point.
The compounds were extracted from 20 μL plasma by protein precipitation using 120 μL acetonitrile containing an analogue compound as an internal standard. The filtered extracts were collected into a 96 well plate and were diluted with an equal volume of 10% acetonitrile containing 0.1% formic acid in water (v/v). The plate was then mixed on a plate shaker for at least 5 mins before analysis by LC-MS/MS against a calibration line prepared in control plasma.
Each brain was weighed, then homogenised in 3 ml acetonitrile:water (10:90v/v). The compounds were extracted from 200 μL of the resulting homogenate by protein precipitation using 600 μL acetonitrile containing an analogue compound as an internal standard. The extracts were centrifuged and 150 μl of each was filtered and transferred to a 96 well plate. The aliquot was diluted with 10% acetonitrile containing 0.1% formic acid in water (v/v). The plate was mixed on a plate shaker for at least 5 mins before analysis by LC-MS/MS against a calibration line prepared in control brain homogenate.

The target of series [2] is T1, GR (Homo sapiens, UniProt P04150).
T1 construct: endogenous in cells; host or cells: A549 (human lung carcinoma, ECACC No. 86012804), stably transfected with reporter plasmids only
T1 sequence (P04150 1-777): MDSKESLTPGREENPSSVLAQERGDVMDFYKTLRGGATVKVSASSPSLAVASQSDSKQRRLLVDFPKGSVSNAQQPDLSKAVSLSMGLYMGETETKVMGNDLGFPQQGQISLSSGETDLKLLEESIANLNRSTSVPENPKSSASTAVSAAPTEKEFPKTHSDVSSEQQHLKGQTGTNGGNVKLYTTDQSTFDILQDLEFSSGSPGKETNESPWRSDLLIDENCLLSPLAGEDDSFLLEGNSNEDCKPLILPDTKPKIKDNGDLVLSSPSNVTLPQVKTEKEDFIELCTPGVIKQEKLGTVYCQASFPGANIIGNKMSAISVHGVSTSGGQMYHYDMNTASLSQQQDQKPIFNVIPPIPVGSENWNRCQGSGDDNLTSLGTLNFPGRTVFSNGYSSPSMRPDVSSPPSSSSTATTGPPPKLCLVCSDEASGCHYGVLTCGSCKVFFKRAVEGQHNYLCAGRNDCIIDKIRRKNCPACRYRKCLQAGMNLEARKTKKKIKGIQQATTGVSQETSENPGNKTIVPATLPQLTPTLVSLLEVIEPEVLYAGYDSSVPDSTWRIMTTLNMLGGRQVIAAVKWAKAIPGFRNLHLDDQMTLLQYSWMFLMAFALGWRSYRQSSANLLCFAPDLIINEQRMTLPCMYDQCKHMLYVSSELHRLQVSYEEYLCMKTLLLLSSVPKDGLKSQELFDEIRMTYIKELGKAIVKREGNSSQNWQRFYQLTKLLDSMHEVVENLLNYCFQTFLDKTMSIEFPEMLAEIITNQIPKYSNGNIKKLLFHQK
Description: GR Functional Assay - NFκB Assay (A549 SPAP cells, TNFα stimulated). The settings on record: for Emax: agonists, read-out: average maximum asymptote in the NFkB assay. The format is cell-based. The method in brief: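 Stably transfected A549 SPAP cells at 0.16×10^6/ml in DMEM with 10% FCS were added to compound and stimulated with TNFα to drive NFκB-dependent SPAP expression. After 1 hr equilibration at room temperature, SPAP was read colorimetrically with pNPP in diethanolamine buffer, pH 9.8.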

In a further series the target is T2, glucocorticoid receptor (Homo sapiens, UniProt P04150).
T2 construct: a partially purified full length glucocorticoid receptor
T2 sequence (P04150 1-777): T1 sequence (P04150 1-777)
The series is described as follows: Glucocorticoid Receptor Binding Assay (fluorescence polarisation, displacement of Alexa 555 labelled dexamethasone derivative). The settings on record: at least once in this assay; read-out: glucocorticoid binding pIC50 (converted). The gist of the method:
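Partially purified full-length GR incubated with test compound and fluorescent dexamethasone plus GR-stabilising buffer components, 2 hr at room temperature in the dark. Binding scored as displacement of tracer, read as decrease in fluorescence polarisation.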
A general note: In fluorescence polarisation assays a small probe gives low polarisation when free and higher when bound to something large.

Series [3] has as its target T1, GR. The series is described as follows: GR Agonist Assay - MMTV Assay (A549 MMTV cells, renilla luciferase reporter). Type of series: cell-based. The settings on record: 6 h, agonists, read-out: average maximum asymptote in the MMTV agonist assay. The method in brief: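 Stably transfected A549 MMTV cells carry a GR-driven luciferase reporter. Cells at 0.1×10^6/ml in DMEM with 10% FCS and 25 mM HEPES were added to wells containing compound. After detection reagent, plates were held about 15 mins at room temperature and luminescence was read.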
(In general: Reporter assays use an easily measured gene product as a stand-in for the process of interest.)

The target in another series is T3, Progesterone Receptor (Homo sapiens, UniProt P06401).
T3 construct: expressed in transfected cells; host or cells: CV-1 cells transduced with PRb-BacMam and MMTV-BacMam
T3 sequence (P06401 1-933): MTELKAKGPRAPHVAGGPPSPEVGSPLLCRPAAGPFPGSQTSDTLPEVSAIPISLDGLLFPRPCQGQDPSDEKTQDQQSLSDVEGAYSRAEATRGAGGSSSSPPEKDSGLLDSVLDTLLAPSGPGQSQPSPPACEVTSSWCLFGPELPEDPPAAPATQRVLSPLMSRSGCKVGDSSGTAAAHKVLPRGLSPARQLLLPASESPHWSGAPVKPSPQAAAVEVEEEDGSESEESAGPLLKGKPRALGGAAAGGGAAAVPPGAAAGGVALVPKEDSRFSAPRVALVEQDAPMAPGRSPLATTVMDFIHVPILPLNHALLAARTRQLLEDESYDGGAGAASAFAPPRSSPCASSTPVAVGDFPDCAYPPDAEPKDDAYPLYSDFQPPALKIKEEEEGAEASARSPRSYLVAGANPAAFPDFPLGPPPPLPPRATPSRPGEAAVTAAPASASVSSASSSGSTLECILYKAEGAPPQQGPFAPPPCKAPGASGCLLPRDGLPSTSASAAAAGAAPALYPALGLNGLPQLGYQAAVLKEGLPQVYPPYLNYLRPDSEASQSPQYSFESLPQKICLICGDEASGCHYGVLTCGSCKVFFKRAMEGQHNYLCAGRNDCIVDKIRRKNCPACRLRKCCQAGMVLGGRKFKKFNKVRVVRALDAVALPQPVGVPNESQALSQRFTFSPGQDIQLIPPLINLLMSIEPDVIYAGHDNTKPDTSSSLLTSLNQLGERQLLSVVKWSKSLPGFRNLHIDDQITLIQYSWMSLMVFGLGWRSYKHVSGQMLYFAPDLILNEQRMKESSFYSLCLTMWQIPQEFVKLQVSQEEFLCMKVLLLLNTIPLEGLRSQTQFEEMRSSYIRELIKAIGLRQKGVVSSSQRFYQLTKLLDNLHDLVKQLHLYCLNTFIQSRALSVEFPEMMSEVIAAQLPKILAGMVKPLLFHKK
Description: Assay for Progesterone Receptor Agonist Activity (CV-1 cells, PRb-BacMam, MMTV-BacMam). The settings on record: at least once in this assay, read-out: progesterone receptor agonist pEC50 (converted). The format is cell-based. On the procedure:
A T225 flask of CV-1 cells at a density of 80% confluency was washed with PBS, detached from the flask using 0.25% trypsin and counted using a Sysmex KX-21N. Cells were diluted in DMEM containing 10% Hyclone, 2 mM […] and 1% Pen/Strep at 140 cells/μl and transduced with 10% PRb-BacMam and 10% MMTV-BacMam. […] of suspension cells were dispensed to each well of white Nunc 384-well plates, containing compounds at the required concentration. After 24 hr 10 μl of Steadylite were added to each well of the plates. Plates were incubated in the dark for 10 min before reading them on a Viewlux reader. Dose response curves were constructed from which pEC50 values were estimated.

The mark [4] stands for this setting: at least once in the NFkB assay, A549 SPAP cells, read-out: pIC50 in the NFkB assay (converted).
Where [5] appears, read: at least once, examples listed as agonists in NFkB and MMTV assays, read-out: potency pIC50 in the NFKB assay (converted).

Where two headings read alike, the source gives them in different places. Bounds are passed on as bounds.

On to `CCN(CC(O)(CNC(=O)c1cnn(-c2ccc(F)c(F)c2)c1N)C(F)(F)F)C(=O)c1ccccc1` (racemic) [Example 24 (racemic), 5-amino-1-(3,4-difluorophenyl)-N-(2-{[ethyl(phenylcarbonyl)amino]methyl}-3,3,3-trifluoro-2-hydroxypropyl)-1H-pyrazole-4-carboxamide], for which the Kp at 5 min in series [1] is at least 0.1. Further, the Emax on GR [2] (A549 SPAP cells) and at GR [3] was at least 40% each time. For the same molecule, the IC50 was under 1 µM on GR [2] (setting [4]), under 0.316 µM at GR [2] (setting [5]) and under 1 µM on glucocorticoid receptor.
Consider `CCN(CC(O)(CNC(=O)c1cnn(-c2ccc(F)cc2)c1N)C(F)(F)F)C(=O)c1ncccc1Cl` (single isomer, unassigned) [Example 3 Enantiomer 1, N-[2-[({[5-Amino-1-(4-fluorophenyl)-1H-pyrazol-4-yl]carbonyl]amino)methyl]-3,3,3-trifluoro-2-hydroxypropyl}-3-chloro-N-ethyl-2-Pyridinecarboxamide], for which, in series [1], the Kp at 5 min was at least 0.1. Besides, the EC50 at Progesterone Receptor was over 1 µM.
Consider `CCN(CC(O)(CNC(=O)c1cnn(-c2ccc(F)cc2)c1N)C(F)(F)F)C(=O)c1cccc(F)c1F` (single isomer, unassigned) [Example 5 Enantiomer 1, 5-Amino-N-(2-{[[(2,3-difluorophenyl)carbonyl](ethyl)amino]methyl}-3,3,3-trifluoro-2-hydroxypropyl)-1-(4-fluorophenyl)-1H-pyrazole-4-carboxamide], for which the Emax at GR [2] (A549 SPAP cells) and on GR [3] was at least 40% in each case. Further, the IC50 was under 1 µM at GR [2] (setting [4]), under 0.316 µM at GR [2] (setting [5]) and under 1 µM on glucocorticoid receptor. Besides, the EC50 at Progesterone Receptor was over 1 µM.
For the molecule `CN(CC(O)(CNC(=O)c1cnn(-c2ccc(F)cc2)c1N)C(F)(F)F)C(=O)c1ccccc1Cl` (single isomer, unassigned) [Example 7 Enantiomer 1, 5-amino-N-(2-{[[(2-chlorophenyl)car-bonyl](methyl)amino]methyl}-3,3,3-trifluoro-2-hydroxypropyl)-1-(4-fluorophenyl)-1H-pyrazole-4-carboxamide], the Emax on GR [2] (A549 SPAP cells) and at GR [3] was at least 40% each time. Besides, the IC50 is under 1 µM at GR [2] (setting [4]), under 0.316 µM on GR [2] (setting [5]) and under 1 µM on glucocorticoid receptor. The EC50 at Progesterone Receptor is over 1 µM.
As for `CCN(CC(O)(CNC(=O)c1cnn(-c2ccc(F)cc2)c1N)C(F)(F)F)C(=O)c1cccc2cccnc12` (single isomer, unassigned) [Example 8 Enantiomer 1, N-{2-[({[5-amino-1-(4-fluorophenyl)-1H-pyrazol-4-yl]carbonyl}amino)methyl]-3,3,3-trifluoro-2-hydroxypropyl}-N-ethyl-8-quinolinecarboxamide], the Emax on GR [2] (A549 SPAP cells) and at GR [3] was at least 40% in each case. For the same molecule, the IC50 on GR [2] (setting [4]) was under 1 µM; on GR [2] (setting [5]), under 0.316 µM; at glucocorticoid receptor, under 1 µM. Also, at Progesterone Receptor, the EC50 was over 1 µM.
Turning to `CCN(CC(O)(CNC(=O)c1cnn(-c2ccc(F)cc2)c1N)C(F)(F)F)C(=O)c1ccccc1C(F)(F)F` (single isomer, unassigned) [Example 9 Enantiomer 1, 5-amino-N-{2-[(ethyl{[2-(trifluoromethyl)phenyl]carbonyl}amino)methyl]-3,3,3-trifluoro-2-hydroxypropyl}-1-(4-fluorophenyl)-1H-pyrazole-4-carboxamide], the Emax on GR [2] (A549 SPAP cells) and on GR [3] was at least 40% in each case. Moreover, the IC50 was under 1 µM at GR [2] (setting [4]), under 0.316 µM at GR [2] (setting [5]) and under 1 µM on glucocorticoid receptor. The EC50 on Progesterone Receptor was over 1 µM.
Take `CCN(CC(O)(CNC(=O)c1cnn(-c2ccccc2)c1N)C(F)(F)F)C(=O)c1ccccc1F` (single isomer, unassigned) [Example 45 Enantiomer 1, 5-amino-N-[2-({ethyl[(2-fluorophenyl)car-bonyl]amino}methyl)-3,3,3-trifluoro-2-hydroxypropyl]-1-phenyl-1H-pyrazole-4-carboxamide]: the Emax at GR [2] (A549 SPAP cells) and at GR [3] was at least 40% throughout. Besides, the IC50 on GR [2] (setting [4]) is under 1 µM; at GR [2] (setting [5]) it was under 0.316 µM; on glucocorticoid receptor it was under 1 µM. On Progesterone Receptor, the EC50 is over 1 µM.
